Data taken from patent publication US8247211B2, “Glycopeptide antibiotics” (American Cyanamid Company, priority 2001, dated 2012).
Values after ≈ are worked out from the molar mass of the structure shown.

Assays:
Assay in all cases: In vitro antibacterial evaluation: minimum inhibitory concentration (MIC), broth dilution method
Assay type in all cases: cell-based
[1] = test system: Enterococcus sp.; conditions: for MIC Enterococcus faecalis (ATCC 29212): strain ATCC 29212; for MIC Enterococcus faecalis (GC 4552): strain GC 4552
Description: (§1) The minimum inhibitory concentration (MIC), the lowest concentration of the antibiotic which inhibits growth of the test organism, is determined by the broth dilution method using Muller-Hinton II […] (Baltimore Biological Laboratories) following the recommendations of the National Committee for Clinical Laboratory Standards [Methods for dilution antimicrobial susceptibility tests for bacteria that grow aerobically, approved standard M7-A2, National Committee for Clinical Laboratory Standards, Villanova, Pa].
(§2) An inoculum level of 5×10^5 CFU/mL, and a range of antibiotic concentrations (64-0.06 μg/mL) is used. […] The test organisms include a spectrum of Gram-positive bacteria comprised of Staphylococcus sp., Streptococcus sp. and Enterococcus sp. These organisms include recent clinical isolates that are resistant to methicillin, penicillin and/or vancomycin.

[2] = test system: Escherichia coli
Description: as §1, §2

[3] = test system: Staphylococcus sp.; conditions: for MIC Coagulase Negative Staphylococcus (GC 4547): strain GC 4547; for MIC Staphylococcus aureus-SMITH (GC 4543): strain GC 4543; for MIC Staphylococcus haemolyticus (GC 4546): strain GC 4546; for MIC Coagulase Negative Staphylococcus (GC 4548): strain GC 4548; for MIC Coagulase Negative Staphylococcus (GC 4549): strain GC 4549; for MIC Coagulase Negative Staphylococcus (GC 4551): strain GC 4551; for MIC Coagulase Negative Staphylococcus (ID-3941): strain ID-3941
Description: as §1, §2

[4] = test system: Streptococcus sp.
Description: as §1, §2

[5] = broth dilution, 18 hours at 35° C.

## CCCCCC(=O)OCC1OC(N2C(=N)NCC2C(O)C2NC(=O)C(C(O)C3CNC(=N)N3)NC(=O)C(Cc3ccc(OC4OC(CO)C(OC5OC(CO)C(O)C(O)C5O)C(O)C4O)cc3)NC(=O)C(C(C)c3ccccc3)NC(=O)CNC(=O)C(CO)NC2=O)C(O)C(O)C1O (stereo not shown) [Example 95]
[1]; Enterococcus faecalis (GC 2242), broth dilution, 18 hours at 35° C.
  MIC Enterococcus faecalis (GC 2242): >64 µg/mL
[1]
  MIC Enterococcus faecalis (ATCC 29212): >64 µg/mL
  MIC Enterococcus faecalis (GC 4552): >64 µg/mL
[1]; strain GC 2242
  MIC Enterococcus faecalis (GC 2242): >64 µg/mL
[2]; strain GC 4559
  MIC Escherichia coli (GC 4559): >64 µg/mL
[2]; strain GC 4560
  MIC Escherichia coli (GC 4560): 8 µg/mL (≈ 5.74 µM)
[3]; [5]
  MIC Staphylococcus aureus (ATCC 29213): >64 µg/mL
  MIC Staphylococcus aureus (GC 1131): >64 µg/mL
  MIC Staphylococcus aureus (GC 4535): >64 µg/mL
  MIC Staphylococcus aureus SMITH (GC 4536): >64 µg/mL
[3]; strain GC 4537
  MIC Coagulase Negative Staphylococcus (GC 4537): >64 µg/mL
[3]; strain GC 4538
  MIC Coagulase Negative Staphylococcus (GC 4538): >64 µg/mL
[3]
  MIC Coagulase Negative Staphylococcus (GC 4547): >64 µg/mL
[3]; strain SMITH GC 4536, broth dilution, 18 hours at 35° C.
  MIC Staphylococcus aureus-SMITH (GC 4536): >64 µg/mL

## CC(c1ccccc1)C1NC(=O)CNC(=O)C(CO)NC(=O)C(C(O)C2CNC(=N)N2C2OC(CO)C(O)C(O)C2O)NC(=O)C(C(O)C2CNC(=N)N2)NC(=O)C(Cc2ccc(OC3OC(COC(=O)C(c4ccccc4)c4ccccc4)C(OC4OC(CO)C(O)C(O)C4O)C(O)C3O)cc2)NC1=O (stereo not drawn) [Example 96b, Cyclo[glycyl-β-methylphenylalanyl-O-[6-O-(diphenylacetyl)-4-O-hexopyranosylhexopyranosyl]tyrosyl-3-(2-iminoimidazolidin-4-yl)seryl-3-(3-hexopyranosyl-2-iminoimidazolidin-4-yl)serylseryl]]
[1]
  MIC Enterococcus faecalis (ATCC 29212): 8 µg/mL (≈ 5.37 µM)
  MIC Enterococcus faecalis (GC 4552): 8 µg/mL (≈ 5.37 µM)
[1]; strain GC 2242
  MIC Enterococcus faecalis (GC 2242): 4 µg/mL (≈ 2.69 µM)
[1]; strain GC 2243
  MIC Enterococcus faecium (GC 2243): 8 µg/mL (≈ 5.37 µM)
[1]; strain GC 4553
  MIC Enterococcus faecalis (GC 4553): 8 µg/mL (≈ 5.37 µM)
[1]; strain GC 4554
  MIC Enterococcus faecalis (GC 4554): 8 µg/mL (≈ 5.37 µM)
[1]; strain GC 4556
  MIC Enterococcus faecium (GC 4556): 8 µg/mL (≈ 5.37 µM)
[1]; strain GC 4557
  MIC Enterococcus faecium (GC 4557): 1 µg/mL (≈ 0.671 µM)
[1]; strain GC 4558
  MIC Enterococcus avium (GC 4558): 4 µg/mL (≈ 2.69 µM)
[3]; [5]
  MIC Staphylococcus aureus (ATCC 29213): 1 µg/mL (≈ 0.671 µM)
  MIC Staphylococcus aureus (GC 1131): 2 µg/mL (≈ 1.34 µM)
  MIC Staphylococcus aureus (GC 4541): 1 µg/mL (≈ 0.671 µM)
  MIC Staphylococcus aureus (GC 4542): 2 µg/mL (≈ 1.34 µM)
  MIC Staphylococcus aureus (GC 4544): 2 µg/mL (≈ 1.34 µM)
  MIC Staphylococcus aureus (GC 4545): 1 µg/mL (≈ 0.671 µM)
  MIC Staphylococcus aureus-SMITH (GC 4543): 2 µg/mL (≈ 1.34 µM)
  MIC Staphylococcus haemolyticus (GC 4546): 1 µg/mL (≈ 0.671 µM)
  MIC Coagulase Negative Staphylococcus (GC 4547): 1 µg/mL (≈ 0.671 µM)
  MIC Coagulase Negative Staphylococcus (GC 4548): 0.5 µg/mL (≈ 0.336 µM)
  MIC Coagulase Negative Staphylococcus (GC 4549): 0.5 µg/mL (≈ 0.336 µM)
  MIC Coagulase Negative Staphylococcus (GC 4551): 2 µg/mL (≈ 1.34 µM)
  MIC Coagulase Negative Staphylococcus (ID-3941): 0.5 µg/mL (≈ 0.336 µM)
[3]; 18 hours at 35° C.
  MIC Staphylococcus aureus-SMITH (GC 4543): 2 µg/mL (≈ 1.34 µM)
[3]
  MIC Staphylococcus haemolyticus (GC 4546): 1 µg/mL (≈ 0.671 µM)
  MIC Coagulase Negative Staphylococcus (GC 4547): 1 µg/mL (≈ 0.671 µM)
  MIC Coagulase Negative Staphylococcus (GC 4548): 0.5 µg/mL (≈ 0.336 µM)
  MIC Coagulase Negative Staphylococcus (GC 4549): 0.5 µg/mL (≈ 0.336 µM)
  MIC Coagulase Negative Staphylococcus (GC 4551): 2 µg/mL (≈ 1.34 µM)
  MIC Coagulase Negative Staphylococcus (ID-3941): 0.5 µg/mL (≈ 0.336 µM)
[4]; strain GC 4564
  MIC Streptococcus agalactiae (GC 4564): 0.25 µg/mL (≈ 0.168 µM)
[4]; strain GC 4565
  MIC Streptococcus pneumoniae (GC 4565): <0.12 µg/mL
[4]; strain ID-3187
  MIC Streptococcus pyogenes (ID-3187): 0.25 µg/mL (≈ 0.168 µM)
